Assay results: ChEMBL document CHEMBL1132337, “Chiral resolution and stereospecificity of 6-phenyl-4-phenylethynyl- 1,4-dihydropyridines as selective A(3) adenosine receptor antagonists” (J Med Chem, 1999)

What follows are compounds tested against Adenosine receptor A2a (Rattus norvegicus) (UniProt P30543) (assay: Displacement of [3H]CGS-21680 from Adenosine A2A receptor of rat striatal membrane at 10e-4 M).
Adenosine receptor A2a (Rattus norvegicus), sequence (P30543 whole entry): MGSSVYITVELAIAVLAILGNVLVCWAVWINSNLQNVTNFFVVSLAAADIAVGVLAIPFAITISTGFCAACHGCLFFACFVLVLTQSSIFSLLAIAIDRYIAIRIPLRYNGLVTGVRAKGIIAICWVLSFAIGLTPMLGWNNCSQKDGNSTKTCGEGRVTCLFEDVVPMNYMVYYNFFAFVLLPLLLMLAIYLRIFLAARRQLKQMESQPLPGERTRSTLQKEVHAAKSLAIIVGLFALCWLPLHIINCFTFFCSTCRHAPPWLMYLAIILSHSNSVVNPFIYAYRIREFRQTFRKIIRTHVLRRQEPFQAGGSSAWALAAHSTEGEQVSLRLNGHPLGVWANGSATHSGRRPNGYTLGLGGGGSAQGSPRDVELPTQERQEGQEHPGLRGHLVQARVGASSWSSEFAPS

inhibition	SMILES
10%	CCO/C(O)=C1\C(C)=NC(c2ccccc2)=C(C(=O)OCc2ccccc2)C1C#Cc1ccccc1 (stereo unspecified)
10%	CCOC(=O)C1=C(c2ccccc2)N=C(C)/C(=C(/O)OC[C@H]2COC(C)(C)O2)[C@@H]1C#Cc1ccccc1
14%	CCO/C(O)=C1\C(C)=NC(c2ccccc2)=C(C(=O)OCc2ccccc2)[C@H]1C#Cc1ccccc1
11%	CCO/C(O)=C1\C(C)=NC(c2ccccc2)=C(C(=O)OCc2ccccc2)[C@@H]1C#Cc1ccccc1
10%	CCOC(=O)C1=C(c2ccccc2)N=C(C)/C(=C(/O)OC[C@H]2COC(C)(C)O2)[C@H]1C#Cc1ccccc1
10%	CCOC(=O)C1=C(c2ccccc2)N=C(C)/C(=C(/O)OC[C@H](O)CO)[C@H]1C#Cc1ccccc1
